According to US8895571B2, “Isoindolinone and pyrrolopyridinone derivatives as Akt inhibitors” (Incyte Corporation, priority 2011, dated 2014):

Columns and labels:
[1] = molecular target: T1, Full length Akt1 (Homo sapiens, UniProt P31749); assay: In vitro Akt kinase enzymatic assay (HTRF), Akt1; format: biochemical; conditions: 0.4 nM Akt1, substrate solution with 5 mM ATP, 25° C. 1 hr
T1 construct: Full length Akt1 (cat #P2999); purchased PerkinElmer P2999
Summary of the method: (§1)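 Full-length enzyme (0.4 nM Akt1 or 0.6 nM Akt2/Akt3 in the enzyme solution) was combined with a substrate solution of 0.1 μM ULight-Crosstide plus 5 mM ATP in pH 7.8 HEPES/MgCl2/DTT/Tween20 buffer and reacted 1 hr at 25° C. The EDTA stop contained Eu anti-phospho-Crosstide; IC50 was fitted from 11-point HTRF inhibition curves.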

[2] = molecular target: T2, Full length Akt2 (Homo sapiens, UniProt P31751); assay: In vitro Akt kinase enzymatic assay (HTRF), Akt2; format: biochemical; conditions: 0.6 nM Akt2, substrate solution with 5 mM ATP, 25° C. 1 hr
T2 construct: Full length Akt1 (cat #P2999), Akt2 (cat #PV3184); purchased PerkinElmer PV3184
Summary of the method: as §1

[3] = molecular target: T3, Full length Akt3 (Homo sapiens, UniProt Q9Y243); assay: In vitro Akt kinase enzymatic assay (HTRF), Akt3; format: biochemical; conditions: 0.6 nM Akt3, substrate solution with 5 mM ATP, 25° C. 1 hr
T3 construct: Full length Akt1 (cat #P2999), Akt2 (cat #PV3184), Akt3 (cat #PV3185); purchased PerkinElmer PV3185
Summary of the method: as §1

[4] = molecular target: T4, Full length PKA (Homo sapiens, UniProt P17612); assay: PKA in vitro enzymatic assay (HTRF); format: biochemical; conditions: 0.035 nM enzyme solution, substrate solution with 5 mM ATP, 25° C. 1 hr
T4 construct: Full length PKA (cat #P2912); purchased Invitrogen P2912
Summary of the method: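 Reaction buffer was 50 mM HEPES pH 7.8, 10 mM MgCl2, 5 mM DTT and 0.005% Tween20. Enzyme solution was 0.035 nM, and substrate solution was 0.1 μM fluorescein-CREBtide with 5 mM ATP. After 1 h at 25°C, EDTA plus Tb anti-pS133 antibody was added, TR-FRET was read, and IC50 was fitted from 11-point, 3-fold % inhibition curves.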

[5] = system: LNCaP cells (human prostate tumor cell line); assay: Akt LNCaP proliferation assay (MTS); format: cell-based; conditions: 48 hours
Summary of the method: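 Cells plated at 10,000/well in RPMI with 2% FBS overnight at 37° C., 5% CO2, then exposed to compound at 1000 nM to 0.5 nM (3-fold dilutions) for 48 hours. Viable cells measured by MTS colorimetric read-out after 2 hours; IC50 taken as concentration giving 50% inhibition of total proliferation.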

[6] = given as a bound, final concentrations 1000 nM to 0.5 nM
[7] = 2% fetal bovine serum, class symbols

T1 sequence (P31749 whole entry): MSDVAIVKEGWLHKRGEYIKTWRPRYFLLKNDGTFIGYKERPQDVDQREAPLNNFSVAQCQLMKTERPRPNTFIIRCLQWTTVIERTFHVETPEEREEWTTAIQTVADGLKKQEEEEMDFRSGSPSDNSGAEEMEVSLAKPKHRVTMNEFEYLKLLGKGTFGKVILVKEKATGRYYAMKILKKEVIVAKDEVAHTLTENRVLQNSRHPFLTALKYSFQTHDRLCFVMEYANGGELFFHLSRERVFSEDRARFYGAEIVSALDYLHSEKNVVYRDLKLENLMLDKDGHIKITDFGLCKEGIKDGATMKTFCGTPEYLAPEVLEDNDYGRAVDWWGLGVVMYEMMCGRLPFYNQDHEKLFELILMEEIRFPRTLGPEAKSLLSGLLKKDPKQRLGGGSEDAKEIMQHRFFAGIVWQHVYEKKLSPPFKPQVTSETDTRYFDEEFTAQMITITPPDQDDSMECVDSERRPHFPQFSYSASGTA
T2 sequence (P31751 whole entry): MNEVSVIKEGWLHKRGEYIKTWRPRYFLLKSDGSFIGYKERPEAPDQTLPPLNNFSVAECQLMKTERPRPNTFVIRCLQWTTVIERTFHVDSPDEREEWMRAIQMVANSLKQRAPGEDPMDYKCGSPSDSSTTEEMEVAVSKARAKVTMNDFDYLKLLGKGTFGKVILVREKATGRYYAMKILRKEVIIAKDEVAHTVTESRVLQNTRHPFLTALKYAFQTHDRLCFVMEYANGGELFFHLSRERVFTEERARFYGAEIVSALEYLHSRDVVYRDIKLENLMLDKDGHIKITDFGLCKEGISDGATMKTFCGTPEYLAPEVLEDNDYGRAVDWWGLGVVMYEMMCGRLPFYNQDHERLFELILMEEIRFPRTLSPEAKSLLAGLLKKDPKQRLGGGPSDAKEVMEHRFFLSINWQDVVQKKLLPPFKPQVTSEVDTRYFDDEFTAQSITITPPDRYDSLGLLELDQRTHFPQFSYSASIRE
T3 sequence (Q9Y243 whole entry): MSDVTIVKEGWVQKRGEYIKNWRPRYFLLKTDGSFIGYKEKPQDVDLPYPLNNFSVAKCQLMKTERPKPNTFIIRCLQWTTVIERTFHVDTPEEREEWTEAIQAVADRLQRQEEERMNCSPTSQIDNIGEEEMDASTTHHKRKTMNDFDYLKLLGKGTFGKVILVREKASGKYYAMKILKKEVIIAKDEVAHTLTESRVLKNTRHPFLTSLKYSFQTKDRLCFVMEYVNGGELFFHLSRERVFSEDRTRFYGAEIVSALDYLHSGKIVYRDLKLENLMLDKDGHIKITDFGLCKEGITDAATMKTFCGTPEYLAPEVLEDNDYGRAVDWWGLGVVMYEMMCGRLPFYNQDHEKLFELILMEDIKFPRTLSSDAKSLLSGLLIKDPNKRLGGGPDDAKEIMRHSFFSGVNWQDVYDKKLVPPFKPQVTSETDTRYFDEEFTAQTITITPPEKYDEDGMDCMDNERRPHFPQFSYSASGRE

IC50 [1] [nM]	IC50 [2] [nM]	IC50 [3] [nM]	IC50 [4] [µM]	IC50 [5, 6] [nM]	IC50 [5, 7] [nM]	SMILES
500 to 5000	> 5000	> 5000	> 5	> 1000	–	Cn1ncc(Cl)c1-c1ccc2c(c1)CN([C@H](CN)Cc1cccc(-c3cncnc3)c1)C2=O [Example 74, 2-[(1S)-2-amino-1-(3-pyrimidin-5-ylbenzyl)ethyl]-5-(4-chloro-1-methyl-1H-pyrazol-5-yl)isoindolin-1-one]
< 500	< 500	< 500	> 5	–	< 500	Cn1ncc(C#CC(C)(C)O)c1-c1ccc2c(c1)CN([C@H](CN)Cc1cc(F)cc(F)c1)C2=O [Example 54, 2-[(1S)-2-amino-1-(3,5-difluorobenzyl)ethyl]-5-[4-(3-hydroxy-3-methylbut-1-yn-1-yl)-1-methyl-1H-pyrazol-5-yl]isoindolin-1-one]
< 500	< 500	< 500	0.5 to 5	–	< 500	Cn1nccc1-c1cc2c(cn1)C(=O)N([C@H](CN)Cc1cccc(F)c1)C2 [Example 93, 2-[(1S)-2-amino-1-(3-fluorobenzyl)ethyl]-6-(1-methyl-1H-pyrazol-5-yl)-1,2-dihydro-3H-pyrrolo[3,4-c]pyridin-3-one]
< 500	< 500	< 500	0.5 to 5	–	< 500	Cn1nccc1-c1ccc2c(c1)CN([C@H](CN)Cc1ccsc1)C2=O [Example 81, 2-[(1S)-2-amino-1-(3-thienylmethyl)ethyl]-5-(1-methyl-1H-pyrazol-5-yl)isoindolin-1-one]
< 500	< 500	< 500	0.5 to 5	–	< 500	CCCOCc1cnn(C)c1-c1ccc2c(c1)CN([C@H](CN)Cc1cc(F)cc(F)c1)C2=O [Example 46, 2-[(1S)-2-amino-1-(3,5-difluorobenzyl)ethyl]-5-[4-(1-propoxymethyl)-1-methyl-1H-pyrazol-5-]isoindolin-1-one]
< 500	< 500	< 500	0.5 to 5	–	< 500	Cn1ncc(Cl)c1-c1cc2c(cn1)C(=O)N([C@H](CN)CC1CCCCC1)C2 [Example 135, 2-[(1S)-2-amino-1-(cyclohexylmethyl)ethyl]-6-(4-chloro-1-methyl-1H-pyrazol-5-yl)-1,2-dihydro-3H-pyrrolo[3,4-c]pyridin-3-one]
< 500	500 to 5000	< 500	> 5	–	500 to 5000	COCc1cnn(C)c1-c1cc2c(cn1)C(=O)N([C@H](CN)Cc1cc(F)cc(F)c1)C2 [Example 105, 2-[(1S)-2-amino-1-(3,5-difluoro-benzyl)ethyl]-6-(4-methoxymethyl-1-methyl-1H-pyrazol-5-yl)-1,2-dihydro-3H-pyrrolo[3,4-c]pyridin-3-one]
< 500	< 500	< 500	0.5 to 5	–	< 500	Cc1cnn(C)c1-c1ccc2c(c1)CN([C@H](CN)Cc1cccc(F)c1)C2=O [Example 3, 2-[(1S)-2-amino-1-(3-fluorobenzyl)ethyl]-5-(4-methyl-1-methyl-1H-pyrazol-5-yl)isoindolin-1-one]
< 500	< 500	< 500	0.5 to 5	–	< 500	Cn1ncc(Cl)c1-c1ccc2c(c1)CN([C@H](CN)Cc1cccc(F)c1)C2=O [Example 2, 2-[(1S)-2-amino-1-(3-fluorobenzyl)ethyl]-5-(4-chloro-1-methyl-1H-pyrazol-5-yl)isoindolin-1-one]
< 500	< 500	< 500	0.5 to 5	–	< 500	Cn1ncc(Cl)c1-c1ccc2c(c1)CN([C@H](CN)Cc1ccccn1)C2=O [Example 66, 2-[(1S)-2-amino-1-(pyridin-2-ylmethyl)ethyl]-5-(4-chloro-1-methyl-1H-pyrazol-5-yl)isoindolin-1-one]
< 500	< 500	< 500	< 0.5	–	< 500	Cn1nccc1-c1cc2c(cn1)C(=O)N([C@H](CN)CC1CCCCC1)C2 [Example 134, 2-[(1S)-2-amino-1-(cyclohexylmethyl)ethyl]-6-(1-methyl-1H-pyrazol-5-yl)-1,2-dihydro-3H-pyrrolo[3,4-c]pyridin-3-one]
500 to 5000	> 5000	> 5000	> 5	> 1000	–	CC(C)Cn1nccc1-c1ccc2c(c1)CN([C@H](CN)Cc1cccc(F)c1)C2=O [Example 129, 2-[(1S)-2-amino-1-(3-fluorobenzyl)ethyl]-5-(1-isobutyl-1H-pyrazol-5-yl)isoindolin-1-one]
< 500	< 500	< 500	0.5 to 5	–	< 500	Cn1nccc1-c1ccc2c(c1)CN([C@H](CN)Cc1cccc(F)c1)C2=O [Example 1, 2-[(1S)-2-Amino-1-(3-fluorobenzyl)ethyl]-5-(1-methyl-1H-pyrazol-5-yl)isoindolin-1-one]
< 500	< 500	< 500	> 5	–	< 500	Cn1ncc(Cl)c1-c1ccc2c(c1)CN([C@H](CN)Cc1ccccc1F)C2=O (stereo in doubt) [Example 60, 2-[2-amino-1-(2-fluorobenzyl)ethyl]-5-(4-chloro-1-methyl-1H-pyrazol-5-yl)isoindolin-1-one]
< 500	< 500	< 500	> 5	–	< 500	Cn1ncc(Cl)c1-c1cnc2c(c1)CN([C@H](CN)Cc1cccc(F)c1)C2=O [Example 90, 6-[(1S)-2-amino-1-(3-fluorobenzyl)ethyl]-3-(4-chloro-1-methyl-1H-pyrazol-5-yl)-5,6-dihydro-7H-pyrrolo[3,4-b]pyridin-7-one]
< 500	< 500	< 500	> 5	–	< 500	CC(C)OCc1cnn(C)c1-c1ccc2c(c1)CN([C@H](CN)Cc1ccccc1)C2=O [Example 58, 2-[(1S)-2-amino-1-benzyl-ethyl]-5-[4-(2-propoxymethyl)-1-methyl-1H-pyrazol-5-yl]isoindolin-1-one]

SMILES	IC50 [1] [nM]	IC50 [2] [nM]	IC50 [3] [nM]	IC50 [4] [µM]	IC50 [5, 6] [nM]	IC50 [5, 7] [nM]
Cn1ncc(COC2CCC2)c1-c1ccc2c(c1)CN([C@H](CN)Cc1cccc(F)c1)C2=O [Example 8, 2-[(1S)-2-amino-1-(3-fluorobenzyl)ethyl]-5-(4-cyclobutoxymethyl-1-methyl-1H-pyrazol-5-yl)isoindolin-1-one]	< 500	< 500	< 500	0.5 to 5	–	< 500
